US10696651B2, “Heterocyclic compound” (Takeda Pharmaceutical Company Limited, priority 2016, dated 2020)

Key:
[1] = tested on: ATF4 expression in CCRF-CEM tumor; assay: In vivo ATF4 expression suppression assay (Western blot of CCRF-CEM xenograft tumor) in the presence of L-asparaginase; conditions: compound 10 mg/kg oral 8 hr before tumor removal, L-asparaginase 1000 U/kg s.c. 32 hr and 8 hr before, CCRF-CEM xenograft in SCID mouse
From the text: One million human acute lymphoblastic leukemia cell lines CCRF-CEM obtained from ATCC (American Type Culture Collection) were suspended in Matrigel solution (Corning) and implanted subcutaneously into 6-week-old female SCID mouse (CLEA Japan, Inc.) by injection. The mice in which the tumor engrafted to a size of about 200-1000 mm^3 tumor volume after transplantation were selected and 3 mice per group were used for the experiment. L-asparaginase (Kyowa Hakko Kogyo Co., Ltd.) was subcutaneously administered at a dose of 1000 U/kg 32 hr and 8 hr before tumor removal. A 0.5% methylcellulose suspension of the compound was orally administered at a dose of 10 mg/kg 8 hr before tumor removal. After tumor removal, protein was extracted using Lysing Matrix I tube (MP Biomedicals) containing a protein extract (10% glycerol, 1% sodium dodecyl sulfate, 62.5 mM Tris-HCl [pH 7.5], protease and phosphatase inhibitors [Complete mini and PhosSTOP, Sigma-Aldrich Co. LLC.]) and subjected to Western blot.
Protein extract solution was subjected to protein quantification with BCA Protein Assay Kit (Thermo Scientific), electrophoresed on 7.5-15% SDS-PAGE gel (DRC), and protein in the gel was transferred to PVDF membrane. The membrane was blocked with Starting Block T20 (PBS) Blocking Buffer (Thermo Scientific). […] Thereafter, chemiluminescence was performed using ImmunoStar LD (Wako Pure Chemical Industries, Ltd.), and luminescence intensity was measured by LAS-3000 image analyzer (Fuji Film Co., Ltd.). Furthermore, the expression level of ATF4 was digitized by quantifying the luminescence intensity using Multi Gauge Ver. […]
Based on the ATF4 expression level of the control group orally administered with 0.5% methylcellulose suspension free of Example compound and the treatment group orally administered with Example compound suspension, the ATF4 expression inhibition ratio (%) of the test compound at a compound dose 10 mg/kg was calculated by the following formula and the results thereof are shown in Table 6. […]

[2] = tested on: osteosarcoma cell line U-2-OS; assay: In vitro cell proliferation inhibition assay (CellTiter-Glo, low amino acid media); format: cell-based; conditions: Homo sapiens, U2OS, 72 h, cell proliferation inhibitory rate, McCoy's 5A low amino acid media, Table 4-1
Procedure, shortened: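 Cells seeded at 1000 per well in McCoy's 5A low amino acid medium (25% amino acid content), then exposed to compound for 72 h at 37° C., 5% CO2. ATP measured by CellTiter-Glo luminescence. Inhibition (%) at 100 nM calculated relative to pre-treatment and untreated control wells.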

[3] = target: T1, human GCN2 full-length protein (Homo sapiens, UniProt Q9P2K8); assay: GCN2 enzyme inhibition assay (LanthaScreen TR-FRET); format: biochemical; conditions: GCN2 enzyme inhibitory activity at compound concentration of 3 μM; Table 3-1; read-out: inhibitory rate
T1 construct: purchased Carna Biosciences, Inc
Procedure, shortened: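 Full-length human GCN2 was preincubated with compound for 1 hr at room temperature, then reacted for 1 hr with substrate and ATP added from a 570 μM ATP / 390 nM substrate solution (stock concentrations). Phosphorylation was detected by TR-FRET with a terbium-labelled anti-eIF2alpha antibody after 1 hr, with enzyme-free wells as control.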

T1 sequence (Q9P2K8 whole entry): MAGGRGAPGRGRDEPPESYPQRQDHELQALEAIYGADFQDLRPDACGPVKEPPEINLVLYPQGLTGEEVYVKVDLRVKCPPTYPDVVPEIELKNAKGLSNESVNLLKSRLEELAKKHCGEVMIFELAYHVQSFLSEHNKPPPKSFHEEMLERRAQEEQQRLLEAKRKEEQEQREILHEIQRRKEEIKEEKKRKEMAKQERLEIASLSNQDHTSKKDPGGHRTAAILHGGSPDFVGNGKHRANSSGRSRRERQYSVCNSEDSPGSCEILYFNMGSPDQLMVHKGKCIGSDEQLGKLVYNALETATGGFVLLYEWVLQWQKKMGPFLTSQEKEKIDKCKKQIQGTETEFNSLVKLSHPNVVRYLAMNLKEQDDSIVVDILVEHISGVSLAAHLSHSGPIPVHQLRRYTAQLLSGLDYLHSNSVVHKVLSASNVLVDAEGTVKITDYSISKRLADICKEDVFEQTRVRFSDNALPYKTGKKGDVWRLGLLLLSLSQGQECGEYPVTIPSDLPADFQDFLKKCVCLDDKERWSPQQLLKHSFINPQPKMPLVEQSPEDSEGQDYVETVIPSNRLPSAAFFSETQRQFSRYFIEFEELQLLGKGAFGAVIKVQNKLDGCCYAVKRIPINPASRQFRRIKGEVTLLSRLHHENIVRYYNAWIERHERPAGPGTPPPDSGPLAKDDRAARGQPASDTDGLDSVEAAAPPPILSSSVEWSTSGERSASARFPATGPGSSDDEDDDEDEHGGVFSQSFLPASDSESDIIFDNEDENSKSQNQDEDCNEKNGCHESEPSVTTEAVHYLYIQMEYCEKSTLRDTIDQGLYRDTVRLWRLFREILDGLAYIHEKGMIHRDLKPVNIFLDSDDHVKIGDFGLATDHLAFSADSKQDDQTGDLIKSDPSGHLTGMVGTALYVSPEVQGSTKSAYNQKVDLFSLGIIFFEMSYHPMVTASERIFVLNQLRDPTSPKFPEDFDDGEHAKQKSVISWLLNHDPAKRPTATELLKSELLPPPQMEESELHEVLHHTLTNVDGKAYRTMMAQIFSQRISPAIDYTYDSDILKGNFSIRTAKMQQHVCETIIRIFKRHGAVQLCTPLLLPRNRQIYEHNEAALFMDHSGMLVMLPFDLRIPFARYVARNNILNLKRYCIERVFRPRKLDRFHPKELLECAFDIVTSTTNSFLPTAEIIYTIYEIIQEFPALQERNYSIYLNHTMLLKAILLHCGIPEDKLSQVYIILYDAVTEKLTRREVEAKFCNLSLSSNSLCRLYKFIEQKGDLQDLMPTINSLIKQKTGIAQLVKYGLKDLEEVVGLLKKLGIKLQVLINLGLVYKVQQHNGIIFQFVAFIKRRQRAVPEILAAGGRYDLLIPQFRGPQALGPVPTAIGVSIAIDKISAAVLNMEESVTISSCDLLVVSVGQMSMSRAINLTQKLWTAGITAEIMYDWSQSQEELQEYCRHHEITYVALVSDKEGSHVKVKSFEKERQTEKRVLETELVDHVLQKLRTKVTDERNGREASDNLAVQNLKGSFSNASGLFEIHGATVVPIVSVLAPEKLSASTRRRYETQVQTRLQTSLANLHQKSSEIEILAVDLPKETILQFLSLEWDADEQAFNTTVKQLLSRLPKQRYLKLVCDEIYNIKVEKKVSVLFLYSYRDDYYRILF

SMILES | in vivo ATF4 expression inhibition ratio (%) [1] [%] | inhibition at 0.1 µM [2] [%] | inhibition at 3 µM [3] [%]
Nc1ncc(C#Cc2c(F)ccc(NS(=O)(=O)c3cc(Cl)cc(CO)c3Cl)c2F)cn1 [Example 4, N-(3-((2-aminopyrimidin-5-yl)ethynyl)-2,4-difluorophenyl)-2,5-dichloro-3-(hydroxymethyl)benzenesulfonamide] | 76 | 90 | 100
COc1ncc(Cl)cc1S(=O)(=O)Nc1ccc(F)c(C#Cc2cnc(N)nc2)c1F [Example 7, N-(3-((2-aminopyrimidin-5-yl)ethynyl)-2,4-difluorophenyl)-5-chloro-2-methoxypyridine-3-sulfonamide] | 74 | 96 | 100
